Assay results taken from US9433687B2, “Anti-Notch3 antibodies and antibody-drug conjugates” (Pfizer Inc., priority 2012, dated 2016).

What was measured:
[1] = system: 37622A1 NSCLC patient-derived xenografts; experiment: 37622A1 patient derived NSCLC xenograft model; format: in vivo, mouse; details: 5 mg/kg Q4dx4
Text: The effects of anti-Notch3 ADCs were examined in immunodeficient mice on the in vivo growth of human tumor xenografts that were established from fragments of freshly resected 37622A1 NSCLC tumors obtained in accordance with appropriate consent procedures (Asterand). The 37622A1 NSCLC patient-derived xenografts were subcutaneously passaged in vivo as fragments from animal to animal in nude (Nu/Nu) female mice. When the tumors reached a volume of 150 to 300 mm^3, they were staged to ensure uniformity of the tumor size among various treatment groups. The 37622A1 NSCLC patient-derived xenografts model was dosed intravenously four times every four days (Q4d×4) with PBS vehicle, humanized anti-Notch3 ADCs, control huNeg-8.8 ADCs and cisplatin at the doses provided in Table 19.

[2] = system: N87 gastric xenografts; experiment: N87 gastric xenograft model; format: in vivo, mouse; details: for tumor volume: dose 5 mg/kg intravenously Q4d×4
Experimental: Similar in vivo experiments were performed with the N87 gastric cancer cell line as described above. To generate xenografts, nude (Nu/Nu) female mice were implanted subcutaneously with 8×10^6 N87 cells in 50% Matrigel (BD Biosciences).
The N87 gastric model was also dosed intravenously Q4d×4 with PBS vehicle, rat-human chimeric anti-Notch3 ADCs and control huNeg-8.8 ADCs, at a dose of 5 mg/kg as provided in FIG. 16D.
The N87 gastric model was also dosed intravenously Q4d×4 with PBS vehicle and rat-human chimeric anti-Notch3 ADCs ch28-mc0131, ch75-mc0131, ch28-m(H2O)c-0131 and ch75-m(H2O)c-0131 at a dose of 5 mg/kg as provided in FIG. 16E.

[3] = system: OVCAR3 ovarian xenografts; experiment: OVCAR3 ovarian xenograft model; details: dose 20 mg/kg intraperitoneally Q7d×8
[4] = system: MDA-MB-468 (breast cancer); experiment: In vitro cytotoxicity (MTS), MDA-MB-468; format: cell-based, human; details: Table 13; four days; LP = lacked potency
Experimental: (§1) The effects of anti-Notch3 ADCs were assessed on 1) cell lines endogenously expressing Notch3 protein: HCC2429 (lung cancer), OVCAR3 (ovarian cancer) and MDA-MB-468 (breast cancer), 2) cell lines engineered to over-express full length human Notch3 protein: MDA-MB-468/hNotch3 and U2OS/hNotch3, and 3) a negative control cell line (SW900) using an MTS cellular viability indicator (Promega, Madison, Wis.). These cell lines were cultured with increasing concentrations of anti-Notch3 ADCs comprising rat-human chimeric anti-Notch3 antibodies, ch28 and ch75, and humanized anti-Notch3 antibodies, hu28 and hu75, conjugated to various linker-payload combinations of the present invention. As a specificity control for the anti-Notch3-ADCs, non-targeted control-ADCs (huNeg8.8-ADCs or ch2H6-ADCs) were also tested on the same cell lines. After four days, viability of each culture was assessed. IC50 values were calculated by logistic non-linear regression, model #203 with XL fit v4.2 (IDBS, Guildford, Surry, UK) and presented as ng Ab/mL. The drug antibody ratio (DAR) is also provided.

[5] = system: HCC2429 (lung cancer); experiment: In vitro cytotoxicity (MTS), HCC2429; format: cell-based, human; details: Table 13; four days; LP = lacked potency
Experimental: as §1
(§2) This process generated the anti-Notch3 cysteine mutant ADCs: hu28-(L443C)-vc0101 and hu28-(L443C/κK183C)-vc0101. The activity of the anti-Notch3 cysteine mutant ADCs were assessed on cell lines endogenously expressing Notch3 protein: HCC2429 (lung cancer) and OVCAR3 (ovarian cancer) using an MTS cellular viability indicator as described in previous Examples.

[6] = system: OVCAR3 (ovarian cancer); experiment: In vitro cytotoxicity (MTS), OVCAR3; format: cell-based, human; details: Table 13; four days; LP = lacked potency
Experimental: as §1, §2

With `N.N.[Cl][Pt][Cl]` [Cisplatin, reference compound] the tumor volume ([1]; Day 4) was 226 mm^3, the tumor volume ([1]; Day 7) was 280 mm^3 and the tumor volume ([1]; Day 11) was 301 mm^3. For the same molecule, the tumor volume ([1]; Day 14) was 345 mm^3, the tumor volume ([1]; Day 18) was 309 mm^3 and the tumor volume ([1]; Day 21) was 373 mm^3. The tumor volume ([1]; Day 25) was 401 mm^3, the tumor volume ([1]; Day 28) was 446 mm^3 and the tumor volume ([1]; Day 32) was 482 mm^3. For the same molecule, the tumor volume ([1]; Day 35) was 587 mm^3, the tumor volume ([1]; Day 39) was 591 mm^3 and the tumor volume ([1]; Day 42) was 612 mm^3. The tumor volume ([1]; Day 46) was 723 mm^3, the tumor volume ([1]; Day 49) was 853 mm^3 and the tumor volume ([1]; Day 53) was 970 mm^3. It also gave a tumor volume ([1]; Day 56) of 1215 mm^3, a tumor volume ([1]; Day 60) of 1428 mm^3 and a tumor volume ([1]; Day -1) of 185 mm^3. The tumor volume ([2]; DAY 0) was 328 mm^3, the tumor volume ([2]; DAY 4) was 414 mm^3 and the tumor volume ([2]; DAY 7) was 520 mm^3. For the same molecule, the tumor volume ([2]; DAY 11) was 501 mm^3 and the tumor volume ([2]; DAY 14) was 637 mm^3.

Work on `N.N.O=C([O-])C1(C(=O)[O-])CCC1.[Pt+2]` [carboplatin, reference compound] yielded a tumor volume ([3]; DAY 0) of 167 mm3, a tumor volume ([3]; DAY 3) of 242 mm3 and a tumor volume ([3]; DAY 6) of 246 mm3. The tumor volume ([3]; DAY 11) was 311 mm3, the tumor volume ([3]; DAY 14) was 426 mm3 and the tumor volume ([3]; DAY 18) was 473 mm3. The tumor volume ([3]; DAY 21) was 475 mm3, the tumor volume ([3]; DAY 25) was 552 mm3 and the tumor volume ([3]; DAY 28) was 640 mm3. For the same molecule, the tumor volume ([3]; DAY 31) was 692 mm3, the tumor volume ([3]; DAY 34) was 811 mm3 and the tumor volume ([3]; DAY 38) was 869 mm3. The tumor volume ([3]; DAY 41) was 906 mm3, the tumor volume ([3]; DAY 45) was 1009 mm3 and the tumor volume ([3]; DAY 49) was 1149 mm3. For the same molecule, the tumor volume ([3]; DAY 53) was 1290 mm3, the tumor volume ([3]; DAY 56) was 1370 mm3 and the tumor volume ([3]; DAY 59) was 1514 mm3. It also gave a tumor volume ([3]; DAY 63) of 1783 mm3 and a tumor volume ([3]; DAY 67) of 1844 mm3.

B1: ch75-MalPeg6C2-8261 (conjugate)
VH: QVKLLQSGAALVKPGASVKMSCKASGYAFTDYWVTWVKQSHGKSLEWIGEISPNSGGTNFNEKFKGKATLTVDKSTSTAYMELSRLTSEDSAIYYCTRGEIRYNWFAYWGQGTLVTVSS
VL: DIQMTQSPSSLSASVGDRVTITCKASQNVGNNIAWYQQKPGKAPKLLIYYASNRYTGVPSRFSGSGYGTDFTLTISSLQPEDFATYYCQRLYNSPFTFGGGTKVEIK
For B1, the “IC50 (ng Ab/mL) ± S.E.M., MDA-MB-468” value [4] was 4255 ± 2375^ ng Ab/mL.

B2: ch75-mc3377 (conjugate)
VH: B1 VH
VL: B1 VL
B2 was tested, and the “IC50 (ng Ab/mL) ± S.E.M., MDA-MB-468” value [4] was 560 ng Ab/mL.

B3: ch75-me0131 (conjugate)
VH: B1 VH
VL: B1 VL
With B3 the “IC50 (ng Ab/mL) ± S.E.M., MDA-MB-468” value [4] was 259 ng Ab/mL.

B4: ch28-mc0131 (conjugate)
VH: EVQLVESGGGLVQPGRSLTLSCVASGFTFRDYGMTWIRQAPGKGLTWVAYISSGSNYIYYAEAVKGRFTISRDNAKNTLYLQMTSLRSEDTALYFCTRRGPFVLDAWGQGASVTVSS
VL: DIQMTQSPSFLSASVGDRVTINCKASQSINRYLHWFQQKLGEAPKLLIYNANGLQTGIPSRFSGSGSGTDFTLTISSLQSEDVATYFCLQHNTWPDTFGAGTKLELK
In the case of B4, the “IC50 (ng Ab/mL) ± S.E.M., HCC2429” value [5] is reported as 251 ± 77.5 ng Ab/mL, the “IC50 (ng Ab/mL) ± S.E.M., OVCAR3” value [6] is reported as 6 ± 1.0 ng Ab/mL and the “IC50 (ng Ab/mL) ± S.E.M., MDA-MB-468” value [4] is reported as 35 ± 18.5 ng Ab/mL. For the same molecule, the “growth of N87 gastric xenografts” value ([2]; 5 mg/kg iv Q4dx4, FIG. 16D, 16E) was “inhibited growth of N87 gastric xenografts”.

B5: ch28-vc6780 (conjugate)
VH: B4 VH
VL: B4 VL
With B5 the “IC50 (ng Ab/mL) ± S.E.M., HCC2429” value [5] was 324 ± 78.9 ng Ab/mL, the “IC50 (ng Ab/mL) ± S.E.M., OVCAR3” value [6] was 90 ± 48.5 ng Ab/mL and the “IC50 (ng Ab/mL) ± S.E.M., MDA-MB-468” value [4] was 4407 ± 2128.2 ng Ab/mL.

B6: ch28-mc3377 (conjugate)
VH: B4 VH
VL: B4 VL
In the case of B6, the “IC50 (ng Ab/mL) ± S.E.M., OVCAR3” value [6] is reported as 14 ± 5.5 ng Ab/mL and the “IC50 (ng Ab/mL) ± S.E.M., MDA-MB-468” value [4] is reported as 27 ± 11.3 ng Ab/mL.

B7: ch28-mc8261 (conjugate)
VH: B4 VH
VL: B4 VL
For B7, the “IC50 (ng Ab/mL) ± S.E.M., MDA-MB-468” value [4] was 12147 ± 4806.4 ng Ab/mL.

B8: ch28-MalPeg6C2-0131 (conjugate)
VH: B4 VH
VL: B4 VL
For B8, the “IC50 (ng Ab/mL) ± S.E.M., OVCAR3” value [6] was 10 ± 2.0 ng Ab/mL and the “IC50 (ng Ab/mL) ± S.E.M., MDA-MB-468” value [4] was 10 ± 1.0 ng Ab/mL.

B9: ch28-MalPeg6C2-8261 (conjugate)
VH: B4 VH
VL: B4 VL
With B9 the “IC50 (ng Ab/mL) ± S.E.M., MDA-MB-468” value [4] was 83 ± 35.5 ng Ab/mL.

B10: ch28-me0131 (conjugate)
VH: B4 VH
VL: B4 VL
With B10 the “IC50 (ng Ab/mL) ± S.E.M., HCC2429” value [5] was 30 ng Ab/mL, the “IC50 (ng Ab/mL) ± S.E.M., OVCAR3” value [6] was 8 ± 2.0 ng Ab/mL and the “IC50 (ng Ab/mL) ± S.E.M., MDA-MB-468” value [4] was 24 ± 14.0 ng Ab/mL.
